Laboratory results as given in ChEMBL document CHEMBL1201862, “PubChem BioAssay data set” (2004).
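These data come from cells grown in 96-well plates and exposed to compound for 48 hours at five concentrations. The concentration for 50% growth inhibition is given as GI50.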 Calls of active or inactive are those of the source. Cut-off read from the data, not from the text of the source: active = GI50 up to about 1.1 µM and inactive = higher.

What was measured:
Assay in all cases: DTP human tumour cell line panel, 48 h
A498 = system: A498
ACHN = system: ACHN
CAKI-1 = system: CAKI-1
COLO 205 = system: COLO 205
EKVX = system: EKVX
HCT-116 = system: HCT-116
HOP-92 = system: HOP-92
HT-29 = system: HT-29
Hs-578T = system: Hs-578T
M14 = system: M14
MDA-MB-435 = system: MDA-MB-435
MDA-N = system: MDA-N
NCI-H23 = system: NCI-H23
NCI-H460 = system: NCI-H460
RXF 393 = system: RXF 393
SF-268 = system: SF-268
SNB-19 = system: SNB-19
SR = system: SR
TK-10 = system: TK-10
KM12 = system: KM12

Measured: GI50

O=C(/C=C/c1ccc(O)c(O)c1)OCCCc1ccccc1
inactive: A498 16.4 µM | ACHN 5.32 µM | CAKI-1 20.6 µM | COLO 205 12.4 µM | EKVX 25.8 µM | HCT-116 10.6 µM | HOP-92 12.9 µM | HT-29 21.9 µM | Hs-578T 28.4 µM | M14 7.78 µM | MDA-MB-435 9.44 µM | MDA-N 11.8 µM | NCI-H23 13.2 µM | NCI-H460 20.2 µM | RXF 393 11.2 µM | SF-268 10.2 µM | SNB-19 15 µM | SR 5.69 µM

S=C(Nc1ccc2c(c1)oc1ccccc12)c1cccs1
inactive: A498 > 100 µM | ACHN > 100 µM | CAKI-1 52.8 µM | COLO 205 > 100 µM | EKVX 38.5 µM | HCT-116 > 100 µM | HOP-92 53.5 µM | HT-29 3.66 µM | Hs-578T 29.8 µM | M14 > 100 µM | MDA-MB-435 > 100 µM | MDA-N > 100 µM | NCI-H23 > 100 µM | RXF 393 27.9 µM | SF-268 38.1 µM | SNB-19 38.1 µM | SR 4.25 µM | TK-10 > 100 µM

O=C1c2ccccc2CCC1C(O)(C(F)(F)F)C(F)(F)F (configuration not stated)
inactive: A498 > 100 µM | ACHN > 100 µM | CAKI-1 > 100 µM | COLO 205 > 100 µM | EKVX > 100 µM | HCT-116 > 100 µM | HOP-92 > 100 µM | HT-29 > 100 µM | Hs-578T > 100 µM | KM12 > 100 µM | M14 > 100 µM | MDA-MB-435 > 100 µM | MDA-N > 100 µM | NCI-H23 > 100 µM | NCI-H460 > 100 µM | RXF 393 93.8 µM | SNB-19 > 100 µM | SR > 100 µM | TK-10 > 100 µM

C#CCNC(Cc1c[nH]cn1)C(=O)O (configuration not stated)
inactive: A498 > 100 µM | ACHN > 100 µM | CAKI-1 > 100 µM | COLO 205 > 100 µM | EKVX > 100 µM | HCT-116 > 100 µM | HOP-92 > 100 µM | HT-29 > 100 µM | Hs-578T > 100 µM | KM12 > 100 µM | M14 > 100 µM | MDA-MB-435 > 100 µM | MDA-N > 100 µM | NCI-H460 > 100 µM | RXF 393 > 100 µM | SF-268 > 100 µM | SNB-19 > 100 µM | SR > 100 µM | TK-10 > 100 µM

CCOP(=O)(OCC)[C@]12C[C@@H](C)C=C[C@H]1COC2=O
inactive: A498 > 100 µM | ACHN > 100 µM | CAKI-1 > 100 µM | COLO 205 > 100 µM | EKVX > 100 µM | HCT-116 > 100 µM | Hs-578T > 100 µM | KM12 > 100 µM | M14 > 100 µM | MDA-MB-435 > 100 µM | MDA-N > 100 µM | NCI-H23 > 100 µM | NCI-H460 > 100 µM | RXF 393 > 100 µM | SF-268 > 100 µM | SNB-19 > 100 µM | SR > 100 µM | TK-10 > 100 µM

Cc1nc(C(N)=S)sc1C(=O)CC(=O)C(=O)Nc1ccc(Br)cc1
inactive: A498 > 100 µM | ACHN > 100 µM | CAKI-1 > 100 µM | EKVX > 100 µM | HCT-116 > 100 µM | HOP-92 > 100 µM | HT-29 > 100 µM | Hs-578T > 100 µM | KM12 > 100 µM | M14 > 100 µM | MDA-MB-435 > 100 µM | MDA-N > 100 µM | NCI-H23 > 100 µM | NCI-H460 > 100 µM | RXF 393 > 100 µM | SF-268 > 100 µM | TK-10 > 100 µM

N#CCCN(CCC#N)CCN(CCN(CCC#N)CCC#N)CCN(CCC#N)CCC#N
inactive: A498 > 100 µM | ACHN > 100 µM | CAKI-1 > 100 µM | COLO 205 > 100 µM | EKVX > 100 µM | HCT-116 > 100 µM | HOP-92 > 100 µM | HT-29 > 100 µM | Hs-578T > 100 µM | M14 > 100 µM | MDA-MB-435 > 100 µM | MDA-N > 100 µM | NCI-H23 > 100 µM | NCI-H460 > 100 µM | RXF 393 > 100 µM | SF-268 > 100 µM | SNB-19 > 100 µM | SR > 100 µM | TK-10 > 100 µM

CCN(CC)C(=S)N/N=C/c1cc([N+](=O)[O-])ccc1O
inactive: A498 2.25 µM | ACHN 3.36 µM | COLO 205 3.4 µM | EKVX 4.56 µM | HCT-116 2.75 µM | HT-29 5.45 µM | Hs-578T 53.2 µM | KM12 4.07 µM | M14 4.17 µM | MDA-MB-435 5.48 µM | MDA-N 5.43 µM | NCI-H23 6.59 µM | NCI-H460 3 µM | RXF 393 6.97 µM | SF-268 3.66 µM | SNB-19 9.16 µM | SR 1.74 µM | TK-10 8.87 µM

COc1ccc(C#CC(=O)O)c(OC)c1
inactive: A498 > 100 µM | ACHN > 100 µM | CAKI-1 > 100 µM | COLO 205 > 100 µM | EKVX > 100 µM | HCT-116 > 100 µM | HOP-92 > 100 µM | HT-29 > 100 µM | Hs-578T > 100 µM | KM12 > 100 µM | M14 > 100 µM | MDA-MB-435 > 100 µM | MDA-N > 100 µM | NCI-H23 > 100 µM | NCI-H460 > 100 µM | SNB-19 > 100 µM | SR > 100 µM | TK-10 > 100 µM

Clc1ccc(-c2cn3c(nc4ccccc43)c(/C=C/c3cccs3)n2)cc1
inactive: A498 > 100 µM | ACHN > 100 µM | COLO 205 > 100 µM | HCT-116 97.9 µM | HOP-92 > 100 µM | HT-29 > 100 µM | Hs-578T 43.8 µM | KM12 33.7 µM | M14 > 100 µM | MDA-MB-435 37.3 µM | MDA-N > 100 µM | NCI-H23 52.5 µM | NCI-H460 67.8 µM | RXF 393 > 100 µM | SF-268 72.8 µM | SNB-19 > 100 µM | SR 5.09 µM | TK-10 86.1 µM

O=C(Nc1ccc(Cl)c(Cl)c1)OCCN1c2ccccc2Sc2ccccc21
inactive: ACHN > 10 µM | CAKI-1 > 10 µM | COLO 205 > 10 µM | HCT-116 > 10 µM | HOP-92 > 10 µM | HT-29 > 10 µM | Hs-578T > 10 µM | KM12 > 10 µM | M14 > 10 µM | MDA-MB-435 > 10 µM | MDA-N > 10 µM | NCI-H23 > 10 µM | SF-268 > 10 µM | SNB-19 > 10 µM | SR > 10 µM | TK-10 > 10 µM

CC(C)(Br)C(Br)CCC(C)(Br)C(Br)CO (configuration not stated)
inactive: A498 > 10 µM | ACHN > 10 µM | CAKI-1 > 10 µM | COLO 205 > 10 µM | EKVX > 10 µM | HCT-116 > 10 µM | HOP-92 > 10 µM | HT-29 > 10 µM | Hs-578T > 10 µM | M14 > 10 µM | MDA-MB-435 > 10 µM | MDA-N > 10 µM | NCI-H23 > 10 µM | RXF 393 > 10 µM | SF-268 > 10 µM | SNB-19 > 10 µM

Cc1cc2nc(N3C(=O)/C(=C/Cc4ccco4)N=C3c3ccccc3)sc2cc1C
inactive: ACHN 26.7 µM | CAKI-1 44.4 µM | COLO 205 28 µM | EKVX 20.7 µM | HCT-116 17 µM | HOP-92 10.2 µM | HT-29 23.7 µM | Hs-578T 39.3 µM | KM12 25.9 µM | M14 35.6 µM | MDA-MB-435 7.53 µM | MDA-N 9.98 µM | NCI-H460 23.6 µM | RXF 393 13.6 µM | SF-268 40.4 µM | SNB-19 49.7 µM | SR 38.4 µM | TK-10 84.1 µM

N#Cc1nc(Cc2cccs2)oc1N
inactive: A498 > 100 µM | ACHN > 100 µM | CAKI-1 > 100 µM | EKVX > 100 µM | HCT-116 > 100 µM | HOP-92 > 100 µM | HT-29 > 100 µM | Hs-578T > 100 µM | KM12 > 100 µM | M14 > 100 µM | MDA-MB-435 > 100 µM | MDA-N > 100 µM | RXF 393 > 100 µM | SF-268 > 100 µM | SNB-19 > 100 µM | SR > 100 µM | TK-10 > 100 µM

CC(C)(C)c1c(C(C)(C)C)c(=O)c1=O
inactive: A498 86.1 µM | ACHN > 100 µM | CAKI-1 > 100 µM | COLO 205 > 100 µM | EKVX > 100 µM | HCT-116 > 100 µM | HOP-92 > 100 µM | HT-29 > 100 µM | Hs-578T > 100 µM | KM12 > 100 µM | M14 > 100 µM | MDA-MB-435 > 100 µM | MDA-N > 100 µM | NCI-H23 > 100 µM | NCI-H460 > 100 µM | RXF 393 > 100 µM | SF-268 > 100 µM | SNB-19 > 100 µM | TK-10 > 100 µM

CC(=O)NCCc1c[nH]c2ccc(Cl)cc12
inactive: ACHN > 100 µM | CAKI-1 > 100 µM | COLO 205 > 100 µM | EKVX > 100 µM | HCT-116 > 100 µM | HOP-92 79.8 µM | HT-29 > 100 µM | Hs-578T > 100 µM | KM12 > 100 µM | M14 90.2 µM | MDA-MB-435 > 100 µM | MDA-N > 100 µM | NCI-H23 > 100 µM | NCI-H460 > 100 µM | RXF 393 > 100 µM | SF-268 > 100 µM | SNB-19 > 100 µM | SR > 100 µM | TK-10 > 100 µM
